These results are taken from ChEMBL document CHEMBL1148793, “Influence of conformation on GRIND-based three-dimensional quantitative structure-activity relationship (3D-QSAR)” (J Med Chem, 2007).

Broadly, the IC50 is the midpoint of a concentration-inhibition curve. Low readings indicate higher potency, high ones lower potency.

The target in the test is T1, Lanosterol synthase (Homo sapiens, UniProt P48449).
T1 sequence (P48449 whole entry): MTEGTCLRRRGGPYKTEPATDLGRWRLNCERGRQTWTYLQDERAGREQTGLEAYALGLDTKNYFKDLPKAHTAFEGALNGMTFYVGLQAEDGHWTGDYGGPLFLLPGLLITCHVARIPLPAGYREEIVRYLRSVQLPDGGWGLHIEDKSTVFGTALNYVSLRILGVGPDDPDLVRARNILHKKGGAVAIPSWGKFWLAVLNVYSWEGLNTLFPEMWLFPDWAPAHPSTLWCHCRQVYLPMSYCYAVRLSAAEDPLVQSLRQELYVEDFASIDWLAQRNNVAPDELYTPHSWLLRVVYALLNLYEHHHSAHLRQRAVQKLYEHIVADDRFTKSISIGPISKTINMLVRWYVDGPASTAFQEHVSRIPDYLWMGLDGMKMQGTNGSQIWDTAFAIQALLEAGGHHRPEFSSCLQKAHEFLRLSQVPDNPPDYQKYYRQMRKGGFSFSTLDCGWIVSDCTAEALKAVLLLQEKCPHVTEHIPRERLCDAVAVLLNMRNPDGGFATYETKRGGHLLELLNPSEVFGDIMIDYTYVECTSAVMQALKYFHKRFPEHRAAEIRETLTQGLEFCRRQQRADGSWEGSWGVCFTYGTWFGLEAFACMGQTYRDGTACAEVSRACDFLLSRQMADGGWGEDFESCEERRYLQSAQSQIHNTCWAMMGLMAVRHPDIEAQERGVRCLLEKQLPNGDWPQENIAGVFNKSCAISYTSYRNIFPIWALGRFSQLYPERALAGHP
The experiment in a line: Inhibition of oxidosqualene cyclase.
The compound `CN(C/C=C/COc1ccc(C(=O)c2ccc(Br)cc2)cn1)C1CC1` gave an IC50 of 19.1 nM.
In turn, `CN(CCCCCCOc1ccc(C(=O)c2ccc(Br)cc2)cc1)CC1CC1` had a concentration for half-maximal inhibition (IC50) of 31.6 nM.
Compound `C=CCN(C)CCCCCCOc1ccc2c(c1)c(C)nn2C` showed an IC50 of 240 nM.
With `C=CCN(C)CCCCCCOc1ccc2c(c1)S(=O)(=O)C=C2c1ccc(Br)cc1` the figure was 7.76 nM.
